Measured values from patent EP0068715A1, “Beta-lactam antibacterial agents, their preparation and use” (BEECHAM GROUP PLC, priority 1981, dated 1983).

How the values were obtained:
Assay in all cases: standard MIC synergy test with amoxycillin
Type in all cases: cell-based
Settings in all cases: amoxycillin alone, β-Lactamase Inhibitor: None
E. coli JT39 = tested on: E. coli JT39
Excerpt: (§1) In a standard MIC synergy test, the following data were obtained for the compounds of this invention:-

Kleb. E70 = tested on: Kleb. E70
Excerpt: as §1

Proteus C889 = tested on: Proteus C889
Excerpt: as §1

CC1(C)S[C@@H]2[C@H](NC(=O)[C@H](N)c3ccc(O)cc3)C(=O)N2[C@H]1C(=O)O [amoxycillin]
MIC of amoxycillin (μg/ml) E. coli JT39 (E. coli JT39): 2000 µg/mL | MIC of amoxycillin (μg/ml) Kleb. E70 (Kleb. E70): 500 µg/mL | MIC of amoxycillin (μg/ml) Proteus C889 (Proteus C889): >2000 µg/mL
